Where a name gives a salt, the structure may show the parent alone.
How the values were obtained:
ABTS assay (TEAC) = details: for Trolox Equivalent Antioxidant Capacity (TEAC): ethanol, room temperature, 734 nm, 2 min, extrapolated at 10 μM, Trolox mM equivalent
Procedure: The antioxidant capacity of compounds 1–12 was measured according to the method of Pellegrini et al. but working at room temperature. 6-Hydroxy-2,5,7,8-tetramethylchroman-2-carboxylic acid (Trolox) was used as reference. The analyses were carried out in ethanol (0.2% of water) at room temperature and the absorbance was measured at λ = 734 nm. Each sample (1.0 mL) of ABTS^+• was obtained from the aqueous mother solution by dilution with ethanol to an absorbance of […], and 10 μL of the ethanol solution of the antioxidant was added. All compounds were analyzed at four different final concentrations ranging from 1 to 10 μM. The absorbance was measured after 2 min. Four measurements were recorded for each concentration. Each time blanks of pure solvent were run. The standard deviations of data were all below 5%. The dose-response curves were expressed as the percentage of absorbance decrease (ABTS inhibition expressed as percentage) against the amount of antioxidant concentration. Linear regression was conducted using GraphPad Prism 4.01 (2004) software. The antioxidant capacities were extrapolated at 10 μM concentration and reported as Trolox Equivalent Antioxidant Capacity (TEAC), defined as the concentration (mmol/L) of Trolox having the antioxidant capacity equivalent to that of a 1.0 mmol/L solution of the substance under investigation. Results are expressed as mean ± standard deviation. Statistical analyses were performed using the Student’s t test. The level of significance was p < 0.05 for all data.

L6 myoblasts = assay: Intracellular ROS determination (DCF assay) in L6 myoblasts; format: cell-based, rat; details: for antioxidant activity in cells, DCF assay: L6 and THP-1 cells; for activity at 10 µM: Rattus norvegicus, L6, 10 min, L-6 cells, compound 10 µM, 200 µM cumene hydroperoxide, ΔF/10 min, read-out: Intracellular ROS, DCF fluorescence (Mean) relative to cumene hydroperoxide alone (100%)
Procedure: (§1) The fluorometric DCF assay is a useful technique to evaluate the antioxidant activity of compounds in cells exposed to oxidative stress induced by cumene hydroperoxide. The analyses were carried out in two different cell lines particularly sensitive to radical production: L6 myoblasts from rat skeletal muscle and THP-1 human leukemic monocytes.
(§2) The antioxidant activity of each compound was measured by a standard intracellular fluorescent probe (DCF) assay using L6 myoblasts and THP-1 monocytes exposed to oxidative stress by the addition of cumene hydroperoxide, a radical generator. Fluorescence was measured over a 10-min period, and the ability of the compounds to eliminate the increased ROS production was determined. For L6 myoblasts, growing attached to the bottom of the flask, the medium was discarded and cells were washed twice with 5 mL phosphate buffered saline (PBS) containing 5.0 mM glucose (PBS-glucose) at 37 °C. Cells were gently scraped off with PBS-glucose at 37 °C and centrifuged at 1200 rpm for 5 min (approximately 100× g). The supernatant was discarded and the pellet resuspended in PBS-glucose. Incubation with the probe DCFH2-DA at a final concentration of 10 µM (from a stock solution of 10 mM in DMSO) was carried out for 30 min at 37 °C in the dark. At the end of the incubation, cells were washed twice, centrifuged at 1200 rpm for 5 min, and the final cell pellet was resuspended in PBS-glucose. Before the experiment was initiated, cells were allowed to recover for 1 h at room temperature in the dark. The THP-1 monocytes, growing in suspension, were centrifuged at 1200 rpm for 10 min. The supernatant was discarded, and cells were washed twice with 5 mL PBS-glucose at 37 °C to remove the serum. The pellet was successively resuspended in PBS-glucose, and the probe DCFH2-DA was added at 10 µM final concentration. From that point onwards, the protocols for the two cell types were identical. Intracellular fluorescence was measured at 37 °C using a Perkin Elmer VICTOR 3V spectrofluorometer (excitation at λ = 498 nm and emission at λ = 530 nm). […] Cells were incubated with compounds at the final designated concentration for 10 min at 37 °C before addition of the radical generator. The decrease in the intracellular DCF fluorescence relative to the fluorescence change induced by 200 μM cumene hydroperoxide alone (100%), reported as ΔF/10 min, determined the antioxidant activities. Data are reported as the mean ± standard deviation of at least four different experiments carried out in triplicate. One-way ANOVA test (non-parametric) and Bonferroni post-test (comparing all pairs of columns) were used for the statistical analyses.

[1] = tested on: THP-1 human leukemic monocytes; assay: Intracellular ROS determination (DCF assay) in THP-1 monocytes; format: cell-based; details: 10 min, THP-1 cells, compound 10 µM, 200 µM cumene hydroperoxide, ΔF/10 min, read-out: Intracellular ROS, DCF fluorescence (Mean) relative to cumene hydroperoxide alone (100%)
Procedure: as §1, §2

[2] = Measurement of partition coefficient (logP) by UV-Vis spectrophotometry; format: physicochemical; details: 1-octanol / phosphate buffer 0.1 M pH 7.4; mean of triplicate determinations
Source text: Lipophilicity is a relevant property to estimate the bioavailability and dispersion of a molecule in non-aqueous media (oils, fats, and emulsions) and in the cellular environment. Generally, it can be related to logP, a parameter that evaluates the partition of a molecule between two immiscible solvents (water and 1-octanol). […] As already reported in the literature, the lipophilic character increased from hydroxytyrosol 6 to homovanillyl alcohol 5 and tyrosol 4.
The logP value of all compounds was determined as reported in the literature by UV-Vis spectrophotometry. The partition coefficient (logP) was calculated according to the following relationship: logP = logAx/(A0 − Ax). A0 was the maximum of absorbance of a solution 0.15 mM of each compound dissolved in 1-octanol; Ax is the maximum of absorbance of the organic solution containing the compound after separation from the phosphate buffer (0.1 M, pH 7.4) solution. A solution of 1-octanol saturated with the buffer was used as a blank.

L6 cells = assay: Proliferation curves (cell counts) in L6 cells; format: cell-based, rat; details: 10 µM, absence or presence of cumene hydroperoxide 40 µM
Procedure: (§3) L6 cells were seeded in 60 × 15 mm Petri dishes in 4 mL of the complete growth medium at a density of approximately 10^5 cells/well. The following day, the cells were exposed to the selected compounds 1, 5–7, 11, and 12 at a final concentration of 10 µM in the absence and presence of cumene hydroperoxide (40 µM). Cell counts using a Neubauer chamber were made every 24 h up to confluence. Each time the L6 myoblasts had to be counted, they first underwent a mild trypsinization. THP-1 cells were seeded in 24-well plates in 1 mL of the growth medium. After 24 h, the cells were exposed to 10 µM of the same compounds in the absence and presence of cumene hydroperoxide (200 µM) and incubated for an additional 24 h. Cell counts using a Neubauer chamber were made every 24 h up to confluence. The results are given as the mean ± standard deviation of two different experiments.

THP-1 cells = assay: Proliferation curves (cell counts) in THP-1 cells; format: cell-based, human; details: 10 µM, absence or presence of cumene hydroperoxide 200 µM
Procedure: as §3

Structure (SMILES) | antiradical activity / antioxidant capacity in ABTS assay (ABTS assay (TEAC)) | Trolox Equivalent Antioxidant Capacity (TEAC) (ABTS assay (TEAC)) [mM] | antioxidant activity in cells, DCF assay (L6 myoblasts) | activity at 10 µM (L6 myoblasts) [%] | activity at 10 µM [1] [%] | logP [2] | effect on cell proliferation (cell counts) (L6 cells) | effect on cell proliferation (cell counts) (THP-1 cells)
OCCc1ccccc1 [Compound 1, phenethyl alcohol] | very low antiradical activity | 0.00 | good antioxidant activity | 31 | 33 | – | – | –
O=C(OCCc1cccc(O)c1)C(F)(F)F [Compound 9, 3-Hydroxyphenethyl trifluoroacetate] | – | 0.38 | – | 25 | 28 | 1.96 ± 0.14 | – | –
O=C(OCCc1ccccc1)C(F)(F)F [Compound 7, Phenethyl trifluoroacetate] | very low antiradical activity | 0.00 | good antioxidant activity | 29 | 30 | 2.38 ± 0.18 | – | –
O=C(OCCc1ccccc1O)C(F)(F)F [Compound 8, 2-Hydroxyphenethyl trifluoroacetate] | good antioxidant capacity | 0.75 | – | 26 | 25 | 2.05 ± 0.16 | – | –
O=C(OCCc1ccc(O)c(O)c1)C(F)(F)F [Compound 12, 3,4-Dihydroxyphenethyl trifluoroacetate] | good antioxidant capacity | 0.77 | – | 4 | 16 | 1.62 ± 0.12 | – | –
OCCc1ccccc1O [Compound 2, 2-hydroxyphenethyl alcohol] | good antioxidant capacity | 0.69 | – | 23 | 25 | 0.72 ± 0.07 | – | –
OCCc1ccc(O)cc1 [Compound 4, 4-hydroxyphenethyl alcohol] | – | 0.45 | – | 41 | 25 | 0.69 ± 0.05 | – | –
OCCc1cccc(O)c1 [Compound 3, 3-hydroxyphenethyl alcohol] | – | 0.43 | – | 25 | 23 | 0.66 ± 0.06 | – | –
O=C(OCCc1ccc(O)cc1)C(F)(F)F [Compound 10, 4-Hydroxyphenethyl trifluoroacetate] | – | 0.36 | – | 21 | 20 | 1.98 ± 0.14 | – | –
COc1cc(CCOC(=O)C(F)(F)F)ccc1O [Compound 11, 4-Hydroxy-3-methoxyphenethyl trifluoroacetate] | good antioxidant capacity | 0.87 | – | 20 | 23 | 1.9 ± 0.12 | – | –
Cc1c(C)c2c(c(C)c1O)CCC(C)(C(=O)O)O2 (stereo not drawn) [Trolox, 6-Hydroxy-2,5,7,8-tetramethylchroman-2-carboxylic acid] | – | 1.00 | – | – | – | – | – | –
COc1cc(CCO)ccc1O [Compound 5, 4-hydroxy-3-methoxyphenethyl alcohol] | good antioxidant capacity | 0.81 | – | 22 | 21 | 0.46 ± 0.02 | promoted L6 myoblast proliferation | inhibited THP-1 tumor cell growth
OCCc1ccc(O)c(O)c1 [Compound 6, 3,4-dihydroxyphenethyl alcohol] | good antioxidant capacity | 0.68 | – | 7 | 14 | 0.1 ± 0.01 | – | –

From article PMC6017616, “Synthesis and Evaluation of the Antioxidant Activity of Lipophilic Phenethyl Trifluoroacetate Esters by In Vitro ABTS, DPPH and in Cell-Culture DCF Assays” (Molecules : A Journal of Synthetic Chemistry and Natural …, 2018)
